Holding throughout (format): biochemical
Series [1] addresses T1, Escherichia coli malate dehydrogenase Ec-Mdh variant R81A I12V, SEQ ID No. 162 (Escherichia coli, UniProt P61889, I12V/R81A).
T1 sequence (P61889 1-312 I12V/R81A): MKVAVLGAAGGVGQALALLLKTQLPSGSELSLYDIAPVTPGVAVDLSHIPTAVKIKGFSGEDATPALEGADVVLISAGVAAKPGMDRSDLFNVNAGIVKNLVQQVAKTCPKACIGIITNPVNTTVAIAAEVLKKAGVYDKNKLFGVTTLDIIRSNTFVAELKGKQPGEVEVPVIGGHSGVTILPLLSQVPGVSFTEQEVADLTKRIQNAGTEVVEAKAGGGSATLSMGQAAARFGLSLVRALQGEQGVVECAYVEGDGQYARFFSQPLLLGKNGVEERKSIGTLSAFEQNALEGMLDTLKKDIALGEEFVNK
Briefly: DHB dehydrogenase / malate dehydrogenase kinetics, Ec-Mdh R81A I12V. The following applies: read-out: Km (DHB); 37° C., pH 8, 10 mM NAD.
Method: (§4) Activity of the cytosolic DHB dehydrogenases (Ec-Mdh, Bs-Mdh, Ll-LdhA) was assayed by following the DHB-dependent reduction of NAD^+.
(§5) The reaction mixture contained 60 mM Hepes (pH 8), 50 mM potassium chloride, 5 mM MgCl2, 10 mM NAD, (optionally, 5 mM fructose-1,6-bisphosphate (F16bP)) (all products from Sigma), and appropriate amounts of purified enzyme or cell extract. Reactions were started by adding 50 mM (L)-2,4-dihydroxybutyrate (Rhodia).
All enzymatic assays were carried out at 37° C. in 96-well flat bottomed microtiter plates in a final volume of 250 μL.

In series [2] the target is T2, Escherichia coli malate dehydrogenase Ec-Mdh variant R81A G179D, SEQ ID No. 168 (Escherichia coli, UniProt P61889, G179D/R81A).
T2 sequence (P61889 1-312 R81A/G179D): T1 sequence (P61889 1-312 I12V/R81A) with V12I, G179D
The experiment in a line: DHB dehydrogenase kinetics, Ec-Mdh R81A G179D. The conditions noted are these: 37° C., pH 8, 10 mM NAD. On the procedure:
Site-directed mutagenesis of the E. coli mdh and the B. subtilis mdh genes were carried out using the oligonucleotide pairs listed in Table 3 and the pET28-Ec-mdh and the pET28-Bs-mdh plasmids as the templates. Point mutations to change the amino acid sequence were introduced by PCR (Phusion 1U, HF buffer 20% (v/v), dNTPs 0.2 mM, direct and reverse primers 0.04 μM each, template plasmid 50 ng, water) using the oligonucleotide pairs listed in Table 3. Mutated genes contained a new restriction site listed in Table 3 (introduced using silent mutations) in addition to the functional mutation to facilitate identification of mutated clones. The PCR products were digested by DpnI at 37° C. for 1 h to remove template DNA, and transformed into competent E. coli DH5-alpha cells (NEB). The mutated plasmids were identified by restriction site analysis and verified to carry the desired mutations by DNA sequencing.
Mutant enzymes were expressed, purified and tested for DHB dehydrogenase activity as described in Example 1.
The mutation R81A in Ec-Mdh (by reference to SEQ ID No. 124) was combined with additional changes in the protein sequence.

Series [3] deals with T3, Zymomonas mobilis pyruvate decarboxylase Zm-Pdc variant W392L, SEQ ID No. 192 (Zymomonas mobilis, UniProt P06672, W392L).
T3 sequence (P06672 1-568 W392L): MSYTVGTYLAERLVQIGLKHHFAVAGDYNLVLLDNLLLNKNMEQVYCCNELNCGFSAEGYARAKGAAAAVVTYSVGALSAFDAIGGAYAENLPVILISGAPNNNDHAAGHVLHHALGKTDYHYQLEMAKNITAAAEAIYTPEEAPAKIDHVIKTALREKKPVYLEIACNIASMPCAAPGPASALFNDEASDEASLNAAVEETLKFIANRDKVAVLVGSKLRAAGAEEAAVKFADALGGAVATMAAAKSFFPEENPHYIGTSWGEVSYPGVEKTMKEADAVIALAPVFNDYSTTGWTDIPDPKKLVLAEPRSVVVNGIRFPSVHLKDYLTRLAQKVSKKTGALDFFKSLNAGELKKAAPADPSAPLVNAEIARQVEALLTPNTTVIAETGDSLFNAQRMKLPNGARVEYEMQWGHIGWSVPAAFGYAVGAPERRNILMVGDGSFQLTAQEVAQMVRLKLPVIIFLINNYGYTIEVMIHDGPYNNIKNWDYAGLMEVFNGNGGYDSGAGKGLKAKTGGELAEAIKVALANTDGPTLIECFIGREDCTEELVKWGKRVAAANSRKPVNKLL
Briefly: OHB decarboxylase / pyruvate decarboxylase kinetics, Zm-Pdc W392L. The following applies: 37° C., pH 7, coupled to yeast alcohol dehydrogenase/NADH; read-out: Km (natural substrate, pyruvate). On the procedure:
(§1) OHB decarboxylase activity was assayed by coupling the decarboxylase activity to the NADPH-dependent reduction of the released 3-hydroxypropanal by purified aldehyde reductase, YqhD, from E. coli. The decarboxylation of pyruvate was coupled to the NADH-dependent reduction of acetaldehyde catalysed by yeast alcohol dehydrogenase. Branched-chain alpha-ketoacid decarboxylase activity was measured on 4-methyl-2-oxovaleric acid by coupling to the NADH-dependent reduction of 3-methylbutanal catalysed by horse liver alcohol dehydrogenase. […] Reactions were started by adding 20 mM 2-oxo-4-hydroxybutyrate (OHB), 10 mM 4-methyl-2-oxovaleric acid (MOV), or 5 mM pyruvate.
(§2) Site-directed mutagenesis of the L. lactis kdcA and the Z. mobilis Pdc genes was carried out using the oligonucleotide pairs listed in Table 9 and the pET28-Ll-kdcA and pET28-Zm-Pdc plasmids, respectively, as the template.
(§3) Mutant enzymes were expressed, purified and tested for OHB decarboxylase, pyruvate decarboxylase and MOV decarboxylase activity as described in Example 4.

For series [4], the target named is T4, Zymomonas mobilis pyruvate decarboxylase Zm-Pdc variant G413N, SEQ ID No. 194 (Zymomonas mobilis, UniProt P06672, G413N).
T4 sequence (P06672 1-568 G413N): T3 sequence (P06672 1-568 W392L) with L392W, G413N
The experiment in a line: OHB decarboxylase / pyruvate decarboxylase kinetics, Zm-Pdc G413N. The following applies: 37° C., pH 7, coupled to yeast alcohol dehydrogenase/NADH; read-out: Km (natural substrate, pyruvate). On the procedure:
as §1, §2, §3

Series [5] in a line: DHB dehydrogenase activity of cytosolic enzymes (DHB-dependent reduction of NAD+).
Method: as §4, §5
All enzymatic assays were carried out at 37° C. in 96-well flat bottomed microtiter plates in a final volume of 250 μL. The reactions were followed by the characteristic absorption of NADH at 340 nm (εNADH=6.22 mM^−1 cm^−1) or the absorbtion of DCIP at 655 nm (εDCIP=5.9 mM^−1 cm^−1) in a microplate reader (BioRad 680XR).
A short description of series [6]: Malate dehydrogenase activity (natural substrate).

Results on 3 molecules are retold here after US9605283B2, “Microorganism modified for the production of 1,3-propanediol” (INSTITUT NATIONAL DES SCIENCES APPLIQUÉES, priority 2012, dated 2017).

A word on the Km: it is the substrate concentration at which the rate is half of its maximum.

Positions count from the first letter of the chain named.

For the molecule `O=C(O)[C@@H](O)CCO` [DHB, (L)-2,4-dihydroxybutyrate], the Km in series [1] and in series [2] was above 100 mM in each case.
Consider `CC(=O)C(=O)O` [pyruvate], for which the Michaelis constant (Km) in series [3] and in series [4] was above 50 mM throughout.
Take “Bs-Mdh: (L)-malate dehydrogenase of Bacillus subtilis, wild-type, SEQ ID No. 126”: in series [5] (cytosolic wild-type enzymes), the “DHB dehydrogenase activity (in words)” value was “no measurable DHB dehydrogenase activity”. The “maximum activity on DHB” value in series [5] (text of Example 2) was 0 µmol/mg/min. Moreover, the “Max. specific activity, DHB” value in series [5] (when not saturated, activity estimated at 50 mM substrate, Table 2) was 0 µmol/mg/min. The “Max. specific activity, Natural substrate” value in series [6] (natural substrate (L)-malate, Table 2) was found to be 10.5 µmol/mg/min. In addition, in series [6] (text of Example 2), the activity on malate came out at 10.9 µmol/mg/min.
